Legend:
ORYSA (Rice) = experiment: Leaf treatment test, rice; assay type: in vivo, Oryza sativa L. cv. Dongjin; settings: 14 days after treatment
Procedure: (§1) Seeds of rice, wheat, barley, corn, cotton, barnyard grass, common sorgum, large crabgrass and fall panicum were seeded at a pot with a surface area of 600 cm^2. […] 14 days after the treatment, the degree of damage to the plants was rated in % damage in comparison to the development of untreated control.

ECHCG (Barnyard grass) = experiment: Leaf treatment test, barnyard grass; assay type: in vivo, Echinochloa crus-galli Beauv. var. caudata Kitagawa; settings: leaf treatment at three leaves, 14 days after treatment
Procedure: as §1

DIGSA (Large crabgrass) = experiment: Leaf treatment test, large crabgrass; assay type: in vivo, Digitaria Sanguinalis (L.) SCOP; settings: 14 days after treatment
Procedure: as §1

GLXMA (Soy bean) = experiment: Leaf treatment test, soy bean; assay type: in vivo, Glycine max (L.) MERR; settings: 14 days after treatment
TRZAW (Wheat) = experiment: Leaf treatment test, wheat; assay type: in vivo, Triticum aestivum L.; settings: 14 days after treatment
Procedure: as §1

GOSHI (Cotton) = experiment: Leaf treatment test, cotton; assay type: in vivo, Gossypium; settings: 14 days after treatment
Procedure: as §1

PANDI (Fall panicum) = experiment: Leaf treatment test, fall panicum; assay type: in vivo, Panicum dichotomiflorum Michx; settings: 14 days after treatment
Procedure: as §1

SORBI (Common sorgum) = experiment: Leaf treatment test, common sorgum; assay type: in vivo, Andropogon sorghum; settings: 14 days after treatment
Procedure: as §1

ZEAMX (Corn) = experiment: Leaf treatment test, corn; assay type: in vivo, Zea mays L.; settings: 14 days after treatment
Procedure: as §1

Row | SMILES | degree of damage to the plants (% damage) (ORYSA (Rice); treated amount 0.025 kg/ha) | degree of damage to the plants (% damage) (ORYSA (Rice); treated amount 0.1 kg/ha) | degree of damage to the plants (% damage) (ORYSA (Rice); treated amount 0.4 kg/ha) | degree of damage to the plants (% damage) (ECHCG (Barnyard grass); treated amount 0.025 kg/ha) | degree of damage to the plants (% damage) (ECHCG (Barnyard grass); treated amount 0.1 kg/ha) | degree of damage to the plants (% damage) (ECHCG (Barnyard grass); treated amount 0.4 kg/ha) | degree of damage to the plants (% damage) (DIGSA (Large crabgrass); treated amount 0.025 kg/ha) | degree of damage to the plants (% damage) (DIGSA (Large crabgrass); treated amount 0.1 kg/ha) | degree of damage to the plants (% damage) (DIGSA (Large crabgrass); treated amount 0.4 kg/ha) | degree of damage to the plants (% damage) (GLXMA (Soy bean); treated amount 0.025 kg/ha) | degree of damage to the plants (% damage) (GLXMA (Soy bean); treated amount 0.1 kg/ha) | degree of damage to the plants (% damage) (GLXMA (Soy bean); treated amount 0.4 kg/ha) | degree of damage to the plants (% damage) (TRZAW (Wheat); treated amount 0.025 kg/ha) | degree of damage to the plants (% damage) (TRZAW (Wheat); treated amount 0.1 kg/ha) | degree of damage to the plants (% damage) (TRZAW (Wheat); treated amount 0.4 kg/ha) | degree of damage to the plants (% damage) (GOSHI (Cotton); treated amount 0.025 kg/ha) | degree of damage to the plants (% damage) (GOSHI (Cotton); treated amount 0.1 kg/ha) | degree of damage to the plants (% damage) (GOSHI (Cotton); treated amount 0.4 kg/ha) | degree of damage to the plants (% damage) (PANDI (Fall panicum); treated amount 0.025 kg/ha) | degree of damage to the plants (% damage) (PANDI (Fall panicum); treated amount 0.1 kg/ha) | further results
1 | CCN(C(=O)C(C)Oc1ccc(Oc2nc3ccc(Cl)cc3o2)cc1)c1ccccc1F (stereo not drawn) [Compound No. 2] | 0% | 0% | 0% | 20% | 80% | 95% | 30% | 95% | 100% | 0% | 0% | 10% | 0% | 0% | 0% | 0% | 0% | 0% | 0% | 100% | degree of damage to the plants (% damage) (PANDI (Fall panicum); treated amount 0.4 kg/ha): 100%; degree of damage to the plants (% damage) (SORBI (Common sorgum); treated amount 0.025 kg/ha): 40%; degree of damage to the plants (% damage) (SORBI (Common sorgum); treated amount 0.1 kg/ha): 95%; degree of damage to the plants (% damage) (SORBI (Common sorgum); treated amount 0.4 kg/ha): 100%; degree of damage to the plants (% damage) (ZEAMX (Corn); treated amount 0.025 kg/ha): 5%; degree of damage to the plants (% damage) (ZEAMX (Corn); treated amount 0.1 kg/ha): 10%; degree of damage to the plants (% damage) (ZEAMX (Corn); treated amount 0.4 kg/ha): 70%
2 | CC(Oc1ccc(Oc2nc3ccc(Cl)cc3o2)cc1)C(=O)N(C)c1cc(F)c(F)cc1F (stereo not drawn) [Compound No. 3, 2-[4-(6-Chloro-2-benzoxazoyloxy)-phenoxy]propionic Acid-N-methyl-N-(2,4,5-trifluorophenyl)amide] | 0% | 0% | 10% | 0% | 60% | 95% | 30% | 90% | 100% | 0% | 0% | 10% | 0% | 0% | 0% | 0% | 0% | 0% | 0% | 0% | degree of damage to the plants (% damage) (PANDI (Fall panicum); treated amount 0.4 kg/ha): 0%; degree of damage to the plants (% damage) (SORBI (Common sorgum); treated amount 0.025 kg/ha): 40%; degree of damage to the plants (% damage) (SORBI (Common sorgum); treated amount 0.1 kg/ha): 100%; degree of damage to the plants (% damage) (SORBI (Common sorgum); treated amount 0.4 kg/ha): 100%; degree of damage to the plants (% damage) (ZEAMX (Corn); treated amount 0.025 kg/ha): 0%; degree of damage to the plants (% damage) (ZEAMX (Corn); treated amount 0.1 kg/ha): 0%; degree of damage to the plants (% damage) (ZEAMX (Corn); treated amount 0.4 kg/ha): 0%
3 | CC(Oc1ccc(Oc2nc3ccc(Cl)cc3o2)cc1)C(=O)N(C)c1c(F)cccc1F (stereo not drawn) [Compound No. 4, 2-[4-(6-Chloro-2-benzoxazoyloxy)-phenoxy]propionic Acid-N-methyl-N-(2,6-difluoro-phenyl)amide] | 0% | 20% | 30% | 80% | 95% | 100% | 90% | 100% | 100% | 0% | 0% | 20% | 0% | 0% | 0% | 0% | 0% | 0% | 40% | 100% | degree of damage to the plants (% damage) (PANDI (Fall panicum); treated amount 0.4 kg/ha): 100%; degree of damage to the plants (% damage) (SORBI (Common sorgum); treated amount 0.025 kg/ha): 95%; degree of damage to the plants (% damage) (SORBI (Common sorgum); treated amount 0.1 kg/ha): 100%; degree of damage to the plants (% damage) (SORBI (Common sorgum); treated amount 0.4 kg/ha): 100%; degree of damage to the plants (% damage) (ZEAMX (Corn); treated amount 0.025 kg/ha): 10%; degree of damage to the plants (% damage) (ZEAMX (Corn); treated amount 0.1 kg/ha): 40%; degree of damage to the plants (% damage) (ZEAMX (Corn); treated amount 0.4 kg/ha): 100%
4 | CC(Oc1ccc(Oc2nc3ccc(Cl)cc3o2)cc1)C(=O)N(C)c1ccc(F)cc1F (stereo not drawn) [Compound No. 5, 2-[4-(6-Chloro-2-benzoxazoyloxy)-phenoxy]propionic Acid-N-(2,4-difluorophenyl)-N-methyl Amide] | 0% | 0% | 0% | 0% | 100% | 100% | 100% | 100% | 100% | 0% | 0% | 0% | 0% | 0% | 0% | 0% | 0% | 0% | 40% | 80% | degree of damage to the plants (% damage) (PANDI (Fall panicum); treated amount 0.4 kg/ha): 100%; degree of damage to the plants (% damage) (SORBI (Common sorgum); treated amount 0.025 kg/ha): 100%; degree of damage to the plants (% damage) (SORBI (Common sorgum); treated amount 0.1 kg/ha): 100%; degree of damage to the plants (% damage) (SORBI (Common sorgum); treated amount 0.4 kg/ha): 100%; degree of damage to the plants (% damage) (ZEAMX (Corn); treated amount 0.025 kg/ha): 0%; degree of damage to the plants (% damage) (ZEAMX (Corn); treated amount 0.1 kg/ha): 30%; degree of damage to the plants (% damage) (ZEAMX (Corn); treated amount 0.4 kg/ha): 100%
5 | CC(Oc1ccc(Oc2nc3ccc(Cl)cc3o2)cc1)C(=O)N(C)c1c(F)ccc(F)c1F (stereo not drawn) [Compound No. 6, 2-[4-(6-Chloro-2-benzoxazoyloxy)-phenoxy]propionic Acid-N-methyl-N-(2,3,6-trifluorophenyl)amide] | 0% | 0% | 20% | 95% | 100% | 100% | 40% | 100% | 100% | 0% | 0% | 0% | 0% | 0% | 0% | 0% | 0% | 0% | 40% | 100% | degree of damage to the plants (% damage) (PANDI (Fall panicum); treated amount 0.4 kg/ha): 100%; degree of damage to the plants (% damage) (SORBI (Common sorgum); treated amount 0.025 kg/ha): 100%; degree of damage to the plants (% damage) (SORBI (Common sorgum); treated amount 0.1 kg/ha): 100%; degree of damage to the plants (% damage) (SORBI (Common sorgum); treated amount 0.4 kg/ha): 100%; degree of damage to the plants (% damage) (ZEAMX (Corn); treated amount 0.025 kg/ha): 30%; degree of damage to the plants (% damage) (ZEAMX (Corn); treated amount 0.1 kg/ha): 100%; degree of damage to the plants (% damage) (ZEAMX (Corn); treated amount 0.4 kg/ha): 100%

— patent publication US6486098B1, “Herbicidal phenoxypropionic acid N-alkyl-N-2-fluorophenyl amide compounds” (Dongbu Hannong Chemical Co. Ltd., priority 1999, dated 2002)
